Test results from ChEMBL document CHEMBL1821685 (Eur J Med Chem, 2011).
In brackets after ≈: the same amount, converted by molar mass.

Assay: Solubility of the compound in HEPES buffer
Format: physicochemical

## NNC(=O)c1cnc2c(=O)[nH]c(N)nc2n1
  solubility: 500 µM (≈ 111 µg/mL)

## CC(=O)c1cnc2c(=O)[nH]c(N)nc2n1
  solubility: 500 µM (≈ 103 µg/mL)
